{"source": "patent US20220160750A1", "about": "“SINGLE-NUCLEI CHARACTERIZATION OF AMYOTROPHIC LATERAL SCLEROSIS FRONTAL CORTEX” (President and Fellows of Harvard College, priority 2020, published 2022)", "key": {"[1]": {"tested_on": "neurons derived from human Pluripotent Stem Cells (hPSC)", "test": "TDP-43 localisation (immunofluorescence) after proteasome inhibitor treatment of hPSC-derived neurons", "assay_type": "cell-based", "conditions": "MG132 applied for 24 hrs", "description": "(§1) In contrast, DEGs identified in THY1-cells were connected to cellular stresses previously associated with ALS^1,2 (FIG. 7D) and many were shared with transcriptional changes identified in patients' excitatory cells as a whole (FIG. 8B). […] It was next asked if aspects of these changes could be modeled in vitro using neurons derived from human Pluripotent Stem Cells (hPSC) (FIG. 15A).\nHuman embryonic stem cells were cultured in mTESR (Stemcell technologies) on matrigel (Corning). Neurons were generated from HuES-3-Hb9:GFP based on the motor neuron differentiation protocol previously described^27. Upon completion of the differentiation protocol, cells were sorted via flow-cytometry based on GFP signal intensity to yield GFP-positive neurons that were plated on PDL/laminin-coated plates (Sigma, Life technologies). Neurons were maintained in Neurobasal medium (Life Technologies) supplemented with N2 (Stemcell technologies), B27 (Life technologies), glutamax (Life technologies), non-essential amino acids (Life technologies), and neurotrophic factors (BDNF, GDNF, CNTF), and were grown for 28 days before the application of the proteasome inhibitors MG132 for 24 hrs."}, "[2]": {"tested_on": "neurons derived from human Pluripotent Stem Cells (hPSC)", "test": "Bulk RNA-sequencing of hPSC-derived neurons after proteasome inhibitor treatment", "assay_type": "cell-based", "conditions": "MG132 applied for 24 hrs, compared with excitatory neurons from sALS patients", "description": "as §1\nHuman embryonic stem cells were cultured in mTESR (Stemcell technologies) on matrigel (Corning). Neurons were generated from HuES-3-Hb9:GFP based on the motor neuron differentiation protocol previously described^27. Upon completion of the differentiation protocol, cells were sorted via flow-cytometry based on GFP signal intensity to yield GFP-positive neurons that were plated on PDL/laminin-coated plates (Sigma, Life technologies). […]\nRNA was extracted using RNeasy Plus kit (Qiagen), libraries were prepared using the Illumina TruSeq RNA kit v2 according to the manufacturer's directions, and sequenced at the Broad Institute core with samples randomly assigned between two flow chambers. […] The read counts were obtained from the aligned BAM-files in R using Rsubread. Differential gene expression was analyzed from the read counts in DESeq2 using a Wald's test for the treatment dosage and controlling for the sequencing flow cell."}}, "note": "Where a SMILES comes first, the peptide text is derived from it. The star is where a group is joined. Cbz = O=C(OCc1ccccc1)*", "data": [{"smiles": "CC(C)C[C@@H](C=O)NC(=O)[C@H](CC(C)C)NC(=O)[C@H](CC(C)C)NC(=O)OCc1ccccc1", "note": "[MG132] (Cbz-Leu-Leu-Leu-aldehyde)", "values": [{"measurement": "nuclear loss of TDP-43", "setting": "[1]", "value": "sufficient to induce nuclear loss of TDP-43"}, {"measurement": "transcriptomic changes after treatment (RNA-sequencing)", "setting": "[2]", "value": "widespread transcriptomic changes after treatment"}]}]}
